Here are results for 23 compounds from patent US6552068B1, “3-ethyl-, 3-propyl- or 3-butyl-chroman and thiochroman derivatives” (Chugai Seiyaku Kabushiki Kaisha, priority 1999, dated 2003).

Each structure is given as a SMILES string.

In one experiment the test system is ovariectomized mice administered with 17β-estradiol (increase in uterine weight). Description: Anti-estrogenic activity (oral administration): inhibition of estradiol-induced increase in uterine weight. Format: in vivo. The settings on record: 10 mg/kg p.o. once a day for 3 days, suspended in 5% arabic gum; ovariectomized ICR mice given 17β-estradiolbenzoate 0.1 μg/mouse s.c. for 3 days; uteri weighed 24 hours after last administration. As to the method: Test compounds were assayed for their oral anti-estrogenic activity in the following manner. In this experiment, the compounds prepared in Examples mentioned above were used as test compounds. As control compounds, the following two were used: a compound described in Example 7 of WO98/25916 and a compound corresponding to general formula (1) of the present invention, provided that R1 was a methyl group, i.e., 10-[(3RS,4RS)-7-hydroxy-3-(4-hydroxyphenyl)-3-methylthiochroman-4-yl]-2-(4,4,5,5,5-pentafluoropentyl)decanoic acid, which had been synthesized according to Reaction Schemes 1 to 7 mentioned above.
In this experiment, each of the test and control compounds was suspended in 5% arabic gum solution and orally administered for 3 days on a once-a-day basis. After 24 hours from the last administration, the test animals were sacrificed and the uteri were removed and weighed.
`CCC[C@@]1(c2ccc(O)cc2)CSc2cc(O)ccc2[C@@H]1CCCCCCCCCC(CCCC(F)(F)C(F)(F)F)C(=O)O` (mixture of isomers) [Example 38, 11-[(3RS,4RS)-7-hydroxy-3-(4-hydroxyphenyl)-3-propylthiochroman-4-yl]-2-(4,4,5,5,5,-pentafluoropentyl)undecanoic acid]: the “Inhibition (%) of the increase in uterine weight” value came out at 84%.

Staying with this experiment, now noted: po; 10 mg/kg p.o. once a day for 3 days, suspended in 5% arabic gum; ovariectomized ICR mice given 17β-estradiolbenzoate 0.1 μg/mouse s.c. for 3 days; uteri weighed 24 hours after last administration.
What is called inhibition in vivo is the share of the control response that was lost under treatment. The low end stands for a response near the control, the high end for a response far below the control. As for `CC[C@@]1(c2ccc(O)cc2)COc2cc(O)ccc2[C@@H]1CCCCCCCCCC(CCCC(F)(F)C(F)(F)C(F)(F)C(F)(F)F)C(=O)O` (mixture of isomers) [Example 35, 11-[(3RS,4RS)-3-ethyl-7-hydroxy-3-(4-hydroxyphenyl)chroman-4-yl]-2-(4,4,5,5,6,6,7,7,7-nonafluoroheptyl)undecanoic acid], the inhibition in vivo at 10 mg/kg is 93%.

With `CC[C@@]1(c2ccc(O)cc2)COc2cc(O)ccc2[C@@H]1CCCCCCCCCC(CCCCCC(F)(F)C(F)(F)F)C(=O)O` (mixture of isomers) [Example 22, 11-[(3RS,4RS)-3-ethyl-7-hydroxy-3-(4-hydroxyphenyl)chroman-4-yl]-2-(6,6,7,7,7-pentafluoroheptyl)undecanoic acid], at 10 mg/kg the inhibition in vivo was 83%.

Compound `CCC[C@@]1(c2ccc(O)cc2)CSc2cc(O)ccc2[C@@H]1CCCCCCCCCC(CCC(F)(F)C(F)(F)C(F)(F)C(F)(F)F)C(=O)O` (mixture of isomers) [Example 39, 11-[(3RS,4RS)-7-hydroxy-3-(4-hydroxyphenyl)-3-propylthiochroman-4-yl]-2-(3,3,4,4,5,5,6,6,6-nonafluorohexyl)undecanoic acid] came in with an inhibition in vivo at 10 mg/kg of 84%.

`CCC[C@@]1(c2ccc(O)cc2)CSc2cc(O)ccc2[C@@H]1CCCCCCCCC(CCCCC(F)(F)C(F)(F)F)C(=O)O` (mixture of isomers) [Example 36, 10-[(3RS,4RS)-7-hydroxy-3-(4-hydroxyphenyl)-3-propylthiochroman-4-yl]-2-(5,5,6,6,6-pentafluorohexyl)decanoic acid]: at 10 mg/kg the inhibition in vivo was 89%.

Compound `CC[C@]1(c2ccc(O)cc2)CSc2cc(O)ccc2[C@H]1CCCCCCCCCC(CCCC(F)(F)C(F)(F)F)C(=O)O` (mixture of isomers) [Example 20, 11-[(3RS,4RS)-3-ethyl-7-hydroxy-3-(4-hydroxyphenyl)thiochroman-4-yl]-2-(4,4,5,5,5-pentafluoropentyl)undecanoic acid] yielded an inhibition in vivo at 10 mg/kg of 91%.

In turn, `CCC[C@@]1(c2ccc(O)cc2)CSc2cc(O)ccc2[C@@H]1CCCCCCCCC(CCCC(F)(F)C(F)(F)F)C(=O)O` (mixture of isomers) [Example 29, 10-[(3RS,4RS)-7-hydroxy-3-(4-hydroxyphenyl)-3-propylthiochroman-4-yl]-2-(4,4,5,5,5-pentafluoropentyl)decanoic acid] displayed an inhibition in vivo at 10 mg/kg of 91%.

Turning to `CCC[C@@]1(c2ccc(O)cc2)COc2cc(O)ccc2[C@@H]1CCCCCCCCCC(CCC(F)(F)C(F)(F)C(F)(F)C(F)(F)F)C(=O)O` (mixture of isomers) [Example 45, 11-[(3RS,4RS)-7-hydroxy-3-(4-hydroxyphenyl)-3-propylchroman-4-yl]-2-(3,3,4,4,5,5,6,6,6-nonafluorohexyl)undecanoic acid], at 10 mg/kg the inhibition in vivo was 85%.

For `CC[C@@]1(c2ccc(O)cc2)CSc2cc(O)ccc2[C@@H]1CCCCCCCCCC(CCC(F)(F)C(F)(F)C(F)(F)C(F)(F)F)C(=O)O` (mixture of isomers) [Example 30, 11-[(3RS,4RS)-3-ethyl-7-hydroxy-3-(4-hydroxyphenyl)thiochroman-4-yl]-2-(3,3,4,4,5,5,6,6,6-nonafluorohexyl)undecanoic acid], the inhibition in vivo at 10 mg/kg turned out to be 89%.

The compound `CC[C@]1(c2ccc(O)cc2)CSc2cc(O)ccc2[C@H]1CCCCCCCCC(CCCCC(F)(F)C(F)(F)F)C(=O)O` (mixture of isomers) [Example 15, 10-[(3RS,4RS)-3-ethyl-7-hydroxy-3-(4-hydroxyphenyl)thiochroman-4-yl]-2-(5,5,6,6,6-pentafluorohexyl)decanoic acid] showed an inhibition in vivo at 10 mg/kg of 92%.

In the case of `CC[C@@]1(c2ccc(O)cc2)COc2cc(O)ccc2[C@@H]1CCCCCCCCC(CCCC(F)(F)C(F)(F)C(F)(F)C(F)(F)F)C(=O)O` (mixture of isomers) [Example 34, 10-[(3RS,4RS)-3-ethyl-7-hydroxy-3-(4-hydroxyphenyl)chroman-4-yl]-2-(4,4,5,5,6,6,7,7,7-nonafluoroheptyl)decanoic acid], the inhibition in vivo at 10 mg/kg stood at 90%.

`CCC[C@@]1(c2ccc(O)cc2)COc2cc(O)ccc2[C@@H]1CCCCCCCCC(CCCCC(F)(F)C(F)(F)F)C(=O)O` (mixture of isomers) [Example 40, 10-[(3RS,4RS)-7-hydroxy-3-(4-hydroxyphenyl)-3-propylchroman-4-yl]-2-(5,5,6,6,6-pentafluorohexyl)decanoic acid] returned an inhibition in vivo at 10 mg/kg of 82%.

In turn, `CCC[C@@]1(c2ccc(O)cc2)COc2cc(O)ccc2[C@@H]1CCCCCCCCCC(CCCC(F)(F)C(F)(F)C(F)(F)C(F)(F)F)C(=O)O` (mixture of isomers) [Example 46, 11-[(3RS,4RS)-7-hydroxy-3-(4-hydroxyphenyl)-3-propylchroman-4-yl]-2-(4,4,5,5,6,6,7,7,7-nonafluoroheptyl)undecanoic acid] registered an inhibition in vivo at 10 mg/kg of 94%.

Turning to `CC[C@]1(c2ccc(O)cc2)CSc2cc(O)ccc2[C@H]1CCCCCCCCC(CCCCCC(F)(F)C(F)(F)F)C(=O)O` (mixture of isomers) [Example 14, 10-[(3RS,4RS)-3-ethyl-7-hydroxy-3-(4-hydroxyphenyl)thiochroman-4-yl]-2-(6,6,7,7,7-pentafluoroheptyl)decanoic acid], 10 mg/kg produced 81% inhibition in vivo.

Take `CCC[C@@]1(c2ccc(O)cc2)COc2cc(O)ccc2[C@@H]1CCCCCCCCCC(CCCCC(F)(F)C(F)(F)F)C(=O)O` (mixture of isomers) [Example 44, 11-[(3RS,4RS)-7-hydroxy-3-(4-hydroxyphenyl)-3-propylchroman-4-yl]-2-(5,5,6,6,6-pentafluorohexyl)undecanoic acid]: 10 mg/kg produced 84% inhibition in vivo.

On to `CCC[C@@]1(c2ccc(O)cc2)COc2cc(O)ccc2[C@@H]1CCCCCCCCCC(CCCC(F)(F)C(F)(F)F)C(=O)O` (mixture of isomers) [Example 43, 11-[(3RS,4RS)-7-hydroxy-3-(4-hydroxyphenyl)-3-propylchroman-4-yl]-2-(4,4,5,5,5-pentafluoropentyl)undecanoic acid], for which the inhibition in vivo at 10 mg/kg was 85%.

`CCCC[C@@]1(c2ccc(O)cc2)COc2cc(O)ccc2[C@@H]1CCCCCCCCC(CCCC(F)(F)C(F)(F)C(F)(F)C(F)(F)F)C(=O)O` (mixture of isomers) [Example 47, 10-[(3RS,4RS)-3-butyl-7-hydroxy-3-(4-hydroxyphenyl)chroman-4-yl]-2-(4,4,5,5,6,6,7,7,7-nonafluoroheptyl)decanoic acid] showed an inhibition in vivo at 10 mg/kg of 89%.

As for `CC[C@]1(c2ccc(O)cc2)CSc2cc(O)ccc2[C@H]1CCCCCCCCC(CCCC(F)(F)C(F)(F)F)C(=O)O` (mixture of isomers) [Example 16, 10-[(3RS,4RS)-3-ethyl-7-hydroxy-3-(4-hydroxyphenyl)thiochroman-4-yl]-2-(4,4,5,5,5-pentafluoropentyl)decanoic acid], 10 mg/kg produced 96% inhibition in vivo.

`CCC[C@@]1(c2ccc(O)cc2)COc2cc(O)ccc2[C@@H]1CCCCCCCCC(CCCC(F)(F)C(F)(F)C(F)(F)C(F)(F)F)C(=O)O` (mixture of isomers) [Example 42, 10-[(3RS,4RS)-7-hydroxy-3-(4-hydroxyphenyl)-3-propylchroman-4-yl]-2-(4,4,5,5,6,6,7,7,7-nonafluoroheptyl)decanoic acid] came in with an inhibition in vivo at 10 mg/kg of 95%.

In turn, `CC[C@@]1(c2ccc(O)cc2)CSc2cc(O)ccc2[C@@H]1CCCCCCCCC(CCC(F)(F)C(F)(F)C(F)(F)C(F)(F)F)C(=O)O` (mixture of isomers) [Example 31, 10-[(3RS,4RS)-3-ethyl-7-hydroxy-3-(4-hydroxyphenyl)thiochroman-4-yl]-2-(3,3,4,4,5,5,6,6,6-nonafluorohexyl)decanoic acid] gave an inhibition in vivo at 10 mg/kg of 85%.

Regarding `CC[C@@]1(c2ccc(O)cc2)COc2cc(O)ccc2[C@@H]1CCCCCCCCCC(CCC(F)(F)C(F)(F)C(F)(F)C(F)(F)F)C(=O)O` (mixture of isomers) [Example 32, 11-[(3RS,4RS)-3-ethyl-7-hydroxy-3-(4-hydroxyphenyl)chroman-4-yl]-2-(3,3,4,4,5,5,6,6,6-nonafluorohexyl)undecanoic acid], at 10 mg/kg the inhibition in vivo was 82%.

As to `CCC[C@@]1(c2ccc(O)cc2)COc2cc(O)ccc2[C@@H]1CCCCCCCCC(CCC(F)(F)C(F)(F)C(F)(F)C(F)(F)F)C(=O)O` (mixture of isomers) [Example 41, 10-[(3RS,4RS)-7-hydroxy-3-(4-hydroxyphenyl)-3-propylchroman-4-yl]-2-(3,3,4,4,5,5,6,6,6-nonafluorohexyl)decanoic acid], at 10 mg/kg the inhibition in vivo was 89%.

In the case of `C[C@@]1(c2ccc(O)cc2)CSc2cc(O)ccc2[C@@H]1CCCCCCCCC(CCCC(F)(F)C(F)(F)F)C(=O)O` (mixture of isomers) [10-[(3RS,4RS)-7-hydroxy-3-(4-hydroxyphenyl)-3-methylthiochroman-4-yl]-2-(4,4,5,5,5-pentafluoropentyl)decanoic acid, reference compound], the inhibition in vivo at 10 mg/kg worked out at 75%.
